# Assay results as given in PubChem BioAssay (NCI).
#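 48-hour exposure; five concentrations; linearly interpolated endpoints. The concentration for 50% growth inhibition is given as GI50. TGI: total growth inhibition.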
# Key:
# Experiment in all cases: NCI-60 cell line screen, 48 h
# COLO 205 colon = test system: COLO 205 colon
# NCI-H23 lung = test system: NCI-H23 lung
# SNB-19 CNS = test system: SNB-19 CNS
# CAKI-1 renal = test system: CAKI-1 renal
# HL-60(TB) leukemia = test system: HL-60(TB) leukemia
# HCT-116 colon = test system: HCT-116 colon
# HT29 colon = test system: HT29 colon
# MDA-MB-468 breast = test system: MDA-MB-468 breast
# M14 melanoma = test system: M14 melanoma
# TK-10 renal = test system: TK-10 renal
# MOLT-4 leukemia = test system: MOLT-4 leukemia
# IGROV1 ovarian = test system: IGROV1 ovarian
# NCI-H460 lung = test system: NCI-H460 lung
# OVCAR-8 ovarian = test system: OVCAR-8 ovarian
# 786-0 renal = test system: 786-0 renal
# SF-295 CNS = test system: SF-295 CNS
# DU-145 prostate = test system: DU-145 prostate
# KM12 colon = test system: KM12 colon
# MALME-3M melanoma = test system: MALME-3M melanoma
# U251 CNS = test system: U251 CNS
# CCRF-CEM leukemia = test system: CCRF-CEM leukemia
# HCT-15 colon = test system: HCT-15 colon
# HOP-62 NSCLC = test system: HOP-62 NSCLC
# SK-MEL-2 melanoma = test system: SK-MEL-2 melanoma
# RXF 393 renal = test system: RXF 393 renal
# MCF7 breast = test system: MCF7 breast
# SK-MEL-28 melanoma = test system: SK-MEL-28 melanoma
# HOP-92 NSCLC = test system: HOP-92 NSCLC
# NCI/ADR-RES ovarian = test system: NCI/ADR-RES ovarian
# SN12C renal = test system: SN12C renal
# SF-539 CNS = test system: SF-539 CNS
# A498 renal = test system: A498 renal
# OVCAR-5 ovarian = test system: OVCAR-5 ovarian
# T-47D breast = test system: T-47D breast
# UACC-257 melanoma = test system: UACC-257 melanoma
# SR leukemia = test system: SR leukemia
# UO-31 renal = test system: UO-31 renal
# OVCAR-3 ovarian = test system: OVCAR-3 ovarian
# ACHN renal = test system: ACHN renal
# EKVX NSCLC = test system: EKVX NSCLC
# NCI-H522 lung = test system: NCI-H522 lung
# HCC-2998 colon = test system: HCC-2998 colon
# PC-3 prostate = test system: PC-3 prostate
# SF-268 CNS = test system: SF-268 CNS
# UACC-62 melanoma = test system: UACC-62 melanoma
# A549 NSCLC = test system: A549 NSCLC
# HS 578T breast = test system: HS 578T breast
# K-562 leukemia = test system: K-562 leukemia
# SK-MEL-5 melanoma = test system: SK-MEL-5 melanoma
# SK-OV-3 ovarian = test system: SK-OV-3 ovarian
# BT-549 breast = test system: BT-549 breast
# MDA-MB-435 = test system: MDA-MB-435
# NCI-H226 lung = test system: NCI-H226 lung
# MDA-MB-231 breast = test system: MDA-MB-231 breast
# SNB-75 CNS = test system: SNB-75 CNS
# SW-620 colon = test system: SW-620 colon
# LOX IMVI melanoma = test system: LOX IMVI melanoma
# OVCAR-4 ovarian = test system: OVCAR-4 ovarian
# RPMI-8226 leukemia = test system: RPMI-8226 leukemia
compound,measurement,setting,value
COc1ccc(C(=O)COc2ccc(NC(=O)Nc3ccc(Cl)c(C(F)(F)F)c3)cc2)cc1,GI50,COLO 205 colon,3.08 µM
same,TGI,COLO 205 colon,> 100 µM
same,GI50,NCI-H23 lung,4.52 µM
same,TGI,NCI-H23 lung,> 100 µM
same,GI50,SNB-19 CNS,3.86 µM
same,TGI,SNB-19 CNS,22.7 µM
same,GI50,CAKI-1 renal,4.36 µM
same,TGI,CAKI-1 renal,> 100 µM
same,GI50,HL-60(TB) leukemia,3.09 µM
same,TGI,HL-60(TB) leukemia,22.7 µM
same,GI50,HCT-116 colon,3.87 µM
same,TGI,HCT-116 colon,> 100 µM
same,GI50,HT29 colon,4.49 µM
same,TGI,HT29 colon,> 100 µM
same,GI50,MDA-MB-468 breast,2800 nM
same,TGI,MDA-MB-468 breast,8.67 µM
same,GI50,M14 melanoma,2720 nM
same,TGI,M14 melanoma,> 100 µM
same,GI50,TK-10 renal,7.9 µM
same,TGI,TK-10 renal,> 100 µM
same,GI50,MOLT-4 leukemia,2840 nM
same,TGI,MOLT-4 leukemia,> 100 µM
same,GI50,IGROV1 ovarian,6 µM
same,TGI,IGROV1 ovarian,> 100 µM
same,GI50,NCI-H460 lung,3.34 µM
same,TGI,NCI-H460 lung,> 100 µM
same,GI50,OVCAR-8 ovarian,4.21 µM
same,TGI,OVCAR-8 ovarian,> 100 µM
same,GI50,786-0 renal,4.57 µM
same,TGI,786-0 renal,24.5 µM
same,GI50,SF-295 CNS,3.35 µM
same,TGI,SF-295 CNS,25.9 µM
same,GI50,DU-145 prostate,5.78 µM
same,TGI,DU-145 prostate,> 100 µM
same,GI50,KM12 colon,2880 nM
same,TGI,KM12 colon,8.71 µM
same,GI50,MALME-3M melanoma,2840 nM
same,TGI,MALME-3M melanoma,18.2 µM
same,GI50,U251 CNS,3.71 µM
same,TGI,U251 CNS,26.1 µM
same,GI50,CCRF-CEM leukemia,3.71 µM
same,TGI,CCRF-CEM leukemia,> 100 µM
same,GI50,HCT-15 colon,3.09 µM
same,TGI,HCT-15 colon,> 100 µM
same,GI50,HOP-62 NSCLC,6.69 µM
same,TGI,HOP-62 NSCLC,96.4 µM
same,GI50,SK-MEL-2 melanoma,2860 nM
same,TGI,SK-MEL-2 melanoma,34.4 µM
same,GI50,RXF 393 renal,4.29 µM
same,TGI,RXF 393 renal,15.3 µM
same,GI50,MCF7 breast,2600 nM
same,TGI,MCF7 breast,> 100 µM
same,GI50,SK-MEL-28 melanoma,3.39 µM
same,TGI,SK-MEL-28 melanoma,33.9 µM
same,GI50,HOP-92 NSCLC,3.08 µM
same,TGI,HOP-92 NSCLC,10 µM
same,GI50,NCI/ADR-RES ovarian,3.69 µM
same,TGI,NCI/ADR-RES ovarian,> 100 µM
same,GI50,SN12C renal,4.8 µM
same,TGI,SN12C renal,> 100 µM
same,GI50,SF-539 CNS,4.12 µM
same,TGI,SF-539 CNS,26.4 µM
same,GI50,A498 renal,2740 nM
same,TGI,A498 renal,9.86 µM
same,GI50,OVCAR-5 ovarian,5.24 µM
same,TGI,OVCAR-5 ovarian,> 100 µM
same,GI50,T-47D breast,3.06 µM
same,TGI,T-47D breast,92.3 µM
same,GI50,UACC-257 melanoma,2950 nM
same,TGI,UACC-257 melanoma,> 100 µM
same,GI50,SR leukemia,3.13 µM
same,TGI,SR leukemia,> 100 µM
same,GI50,UO-31 renal,3.75 µM
same,TGI,UO-31 renal,> 100 µM
same,GI50,OVCAR-3 ovarian,3.3 µM
same,TGI,OVCAR-3 ovarian,> 100 µM
same,GI50,ACHN renal,3.35 µM
same,TGI,ACHN renal,> 100 µM
same,GI50,EKVX NSCLC,3.15 µM
same,TGI,EKVX NSCLC,16.6 µM
same,GI50,NCI-H522 lung,2960 nM
same,TGI,NCI-H522 lung,> 100 µM
same,GI50,HCC-2998 colon,3.8 µM
same,TGI,HCC-2998 colon,34.2 µM
same,GI50,PC-3 prostate,3.08 µM
same,TGI,PC-3 prostate,> 100 µM
same,GI50,SF-268 CNS,4.04 µM
same,TGI,SF-268 CNS,> 100 µM
same,GI50,UACC-62 melanoma,2790 nM
same,TGI,UACC-62 melanoma,9.38 µM
same,GI50,A549 NSCLC,3.2 µM
same,TGI,A549 NSCLC,> 100 µM
same,GI50,HS 578T breast,2890 nM
same,TGI,HS 578T breast,9.97 µM
same,GI50,K-562 leukemia,4.92 µM
same,TGI,K-562 leukemia,> 100 µM
same,GI50,SK-MEL-5 melanoma,3.14 µM
same,TGI,SK-MEL-5 melanoma,19.7 µM
same,GI50,SK-OV-3 ovarian,8.07 µM
same,TGI,SK-OV-3 ovarian,> 100 µM
same,GI50,BT-549 breast,4.38 µM
same,TGI,BT-549 breast,40.8 µM
same,GI50,MDA-MB-435,3.63 µM
same,TGI,MDA-MB-435,> 100 µM
same,GI50,NCI-H226 lung,3.61 µM
same,TGI,NCI-H226 lung,21 µM
same,GI50,MDA-MB-231 breast,3.81 µM
same,TGI,MDA-MB-231 breast,26.1 µM
same,GI50,SNB-75 CNS,1670 nM
same,TGI,SNB-75 CNS,14.3 µM
same,GI50,SW-620 colon,5.3 µM
same,TGI,SW-620 colon,> 100 µM
same,GI50,LOX IMVI melanoma,3.2 µM
same,TGI,LOX IMVI melanoma,> 100 µM
same,GI50,OVCAR-4 ovarian,2870 nM
same,TGI,OVCAR-4 ovarian,17.9 µM
same,GI50,RPMI-8226 leukemia,3.45 µM
same,TGI,RPMI-8226 leukemia,> 100 µM
